Literature values, collected in US20140057953A1, “BIARYL DERIVATIVES AS SELECTIVE 17BETA-HYDROXYSTEROID DEHYDROGENASE TYPE 2 INHIBITORS” (priority 2011, published 2014).
Like-named read-outs stand apart in the source and are kept apart here.

Legend:
17β-HSD2 = target: T1, 17β-HSD2 (Homo sapiens, UniProt P37059); conditions: cited from earlier work
T1 sequence (P37059 1-387): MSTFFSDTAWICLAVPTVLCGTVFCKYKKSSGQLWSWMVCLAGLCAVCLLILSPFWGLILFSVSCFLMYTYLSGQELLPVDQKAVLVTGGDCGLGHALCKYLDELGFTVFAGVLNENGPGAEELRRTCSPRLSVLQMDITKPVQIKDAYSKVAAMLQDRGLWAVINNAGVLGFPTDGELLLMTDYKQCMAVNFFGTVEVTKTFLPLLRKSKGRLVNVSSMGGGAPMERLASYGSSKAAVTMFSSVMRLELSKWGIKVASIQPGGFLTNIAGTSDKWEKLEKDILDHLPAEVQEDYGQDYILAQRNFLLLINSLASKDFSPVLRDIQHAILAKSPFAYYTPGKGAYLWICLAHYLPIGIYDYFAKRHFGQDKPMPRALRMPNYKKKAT

osteoporosis model = conditions: monkeys; cited from earlier work

| SMILES | inhibitory activity (17β-HSD2) (17β-HSD2; at 100 nM) | inhibitory activity (17β-HSD2) (17β-HSD2; at 1 μM) | effect on local level of E2 and T in bones (osteoporosis model) |
| --- | --- | --- | --- |
| C[C@]12CCC3c4ccc(O)cc4CCC3C1CC[C@@]21CCCC(=O)O1 (stereo partly drawn) [C17-spirolactone 1] | 40% | 70% | – |
| CN1C(=O)C[C@H](c2ccccc2)[C@@H]1[C@H](O)c1ccc(-c2cccnc2)s1 [inhibitor 3] | – | – | helps to maintain a sufficient local level of E2 and T in bones |
